Measurements as given in the METLIN SMRT retention time set (Domingo-Almenara et al. 2019).

Assay: gradient 5% acetonitrile 3 min, to 50% in 2 min, to 85% in 15 min, held 3 min, 100 µL/min
Details: column: Zorbax Extend-C18 2.1 x 50 mm; eluents: water / acetonitrile, 0.1% formic acid
Outline: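 Each retention time is based on an adduct peak selected computationally and verified by manual inspection. Measurements used HPLC–quadrupole time-of-flight mass spectrometry in positive and negative ionization mode on mixtures of ~100 pure standards. Chromatography ran on a Zorbax Extend-C18 column (2.1 × 50 mm, 1.8 μm) at 100 μL/min with water and acetonitrile, each containing 0.1% formic acid, and dead and dwell volumes of 40 μL and 900 μL.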

RP-LC retention time | SMILES
650 s | O=c1[nH]cc(S(=O)(=O)N2CCCCCC2)c(=O)[nH]1
762 s | Cc1ccc(O)c(NC(=O)c2nc3nc(C)cc(C(F)F)n3n2)c1
962 s | Cc1ccc(C(=O)Nc2ccc3c(c2)Sc2ncccc2C(=O)N3C(C)C)c(C)c1
698 s | Cc1cccc(Cn2c(=O)n(CCNC(=O)C3CCOC3)c3ncccc32)c1 (stereo not given)
848 s | Cc1ccc(F)c(NS(=O)(=O)c2cc3c(s2)CCN(C(=O)C2CC2)C3)c1
910 s | CCc1ccc(N2C(=O)CN(Cc3ccccc3Cl)[C@H]3CS(=O)(=O)C[C@H]32)cc1
597 s | CN1C(=O)c2cc(C(=O)NCCN3CCCCC3)nn2CC1(C)C(=O)NCc1ccccc1 (stereo not given)
625 s | CO[C@H]1C(=O)N(C2CCN(S(=O)(=O)c3c(C)noc3C)CC2)[C@H]1c1ccncc1
662 s | COc1ccc(Nc2c(C(=O)N3CCC(C)CC3)cnc3nc(C)ccc23)c(OC)c1
711 s | Cc1nc(-c2cnccn2)n(CC(=O)Nc2cccc(C#N)c2)c(=O)c1C
678 s | O=C(c1ccoc1)N1CCOc2ccc(N3CCOCC3)cc2C1
883 s | Cc1sc(NC(=O)c2cccs2)nc1-c1ccc2c(c1)NC(=O)C(C)O2 (stereo not given)
682 s | CCn1cc(CC(=O)NCc2ccc(C)o2)c2cccnc21
710 s | Cc1ccsc1C(=O)N1CC[C@@H](n2c(=O)n(C)c3cccnc32)C1
970 s | CCn1ccc(C(=O)N2c3ccccc3CC2c2nc(C(C)C)no2)n1 (stereo not given)
892 s | O=C(Nc1ccc(N2CCN(c3ccccc3)C2=O)nc1)c1ccc(Br)o1
691 s | O=C1CCN(C(=O)COc2ccc(Cl)cc2)c2ccccc2N1
849 s | CCN1c2ccc(C)cc2C(=O)NC12CCN(C(=O)c1cccc(C)c1)CC2
812 s | COC(=O)c1c(C)[nH]c(C(=O)N2CCCC(C(=O)NCc3ccc(OC(C)C)cc3)C2)c1C (stereo not given)
620 s | CCOc1cc2ncc(C#N)c(Nc3ccc(OCc4ccccn4)c(Cl)c3)c2cc1NC(=O)/C=C/CN(C)C
656 s | CNC(=O)[C@@H]1CN(S(=O)(=O)c2ccc(Cl)s2)C[C@H]1c1n[nH]c(C)n1
1220 s | COC(=O)c1ccc2c(=O)n(-c3cc(OC)cc(OC)c3)c(N3CCCCCC3)nc2c1

RP-LC retention time | SMILES
874 s | O=C(Nc1ccc(F)cc1F)c1cnc(-c2ccccc2)nc1-c1ccncc1
900 s | CCOc1ccc(CCNC(=O)c2nc(CCS(=O)(=O)c3ccccc3)no2)cc1OCC
886 s | CCOc1ccc2nc(Nc3ncc4c(n3)CC(c3ccc(C)cc3)CC4=O)nc(C)c2c1 (stereo not given)
1210 s | Cc1ccc(Cl)cc1-n1ncc2c(=O)n(Cc3nc(-c4cccc(F)c4)no3)cnc21
956 s | COc1ccc(C2OC(c3cc(Cl)ccc3OC(C)=O)=NN2C(C)=O)cc1 (stereo not given)
867 s | Cc1cccc(Nc2c(-c3ccc(N4CCOCC4)cc3)nc3cnccn23)c1C
639 s | COC[C@@H]1CN(Cc2cc(Cl)ccc2F)C[C@H]1c1nc(C)no1
741 s | Cc1cccc(NC(=O)Cn2ccc3sccc3c2=O)c1C
849 s | Cc1ccc(-c2cc3c(N4CCC(C(=O)NC5CCCC5)CC4)nccn3n2)c(C)c1
618 s | COc1ccc(NC(=O)c2cccn(C)c2=O)cc1N1CCCC1=O
836 s | Cc1nnc(-c2cc(C)n(CC(=O)Nc3ccc(Br)cc3)c2C)o1
723 s | CCN(CC)C(=O)c1ccc(-c2nc3cc(NS(=O)(=O)c4cc(F)ccc4C)ccc3n2C)cc1
754 s | CCc1nncn1C1CCN(S(=O)(=O)c2ccc(C)c(Cl)c2)CC1
895 s | COC(=O)C1=CN(c2cccc(Cl)c2)c2ccc(F)cc2S1(=O)=O
779 s | CC(=O)N1c2ccc(S(=O)(=O)N3CCCC3C(=O)NCc3ccc4c(c3)OCO4)cc2CC1C (stereo not given)
777 s | COc1ccc(-n2nc3c(N4CCCC(C(=O)NCCCc5ccccc5)C4)nnc(C)c3c2C)cc1 (stereo not given)
860 s | O=C(NCC1CCCO1)C1CCCN(c2nccnc2Sc2ccccc2)C1 (stereo not given)
963 s | COC(=O)c1c(NC(=O)C2COc3ccccc3O2)sc2c1CCN(C(=O)OC)C2 (stereo not given)
786 s | COc1ccc(NC(=O)N2CCC3(CC2)N=C(c2cccc(F)c2)C(=O)N3)c(OC)c1
700 s | Cc1oc(-c2[nH]ncc2C(=O)N2CCCC2)cc1S(=O)(=O)NCc1cc(F)ccc1F
606 s | Cc1nnc(-c2coc(S(=O)(=O)N3CCN(c4ccccn4)CC3)c2)o1
668 s | CN(C)CCNc1ccc(-c2nc(-c3ccc(F)cc3)no2)cn1

RP-LC retention time | SMILES
910 s | Cc1ccc(C)c(NC(=O)Cn2c(=O)cc(-c3nc(C)no3)c3ccccc32)c1
948 s | C[C@]12CC[C@H](O)CC1=CCC1C2CC[C@]2(C)C(n3cnc4ccccc43)=CCC12 (stereo not given in full)
711 s | Cc1csc(COc2ccc(C(=O)Nc3ccc4cn[nH]c4c3)cc2)n1
960 s | O=C(NC1CCCC1)c1nnc(-c2ccc(S(=O)(=O)N3CCCCC3)cc2)o1
750 s | CCOC(=O)c1sc(NC(=O)C2CC(=O)N(c3n[nH]c4ccccc34)C2)nc1C (stereo not given)
730 s | CCSc1nnc(NC(=O)CCCn2nc(-c3ccc(OC)cc3)ccc2=O)s1
681 s | CN1C(=O)c2cccn2CC1C(=O)Nc1ccccc1 (stereo not given)
888 s | CCC(C)NC(=O)NC1CCN(C2=NS(=O)(=O)C(c3ccc(C)c(C)c3)=C2C)CC1 (stereo not given)
633 s | O=C(c1ccc(F)cc1F)N1CCC(n2cnnc2C2CC2)CC1
865 s | COc1ccc(CNC(=O)c2nnc(-c3ccc(S(=O)(=O)N(C)C)cc3)o2)c(OC)c1
559 s | Cc1cc(C)c2c(N(C)C)nc(C(=O)NC(C)c3ccccn3)nc2n1 (stereo not given)
910 s | COc1ccc(NC2=NS(=O)(=O)C(c3ccc(OC)cc3)=C2C)cc1
680 s | CN(CC#N)C(=O)c1ccc2c(c1)CCN2C(=O)C1CC1
878 s | Cc1cccc(NC(=O)C2CCCN(S(=O)(=O)c3cn(C(C)C)cn3)C2)c1C (stereo not given)
654 s | Cn1c(=O)n(C)c2cc(N3CCCCC3)c(NC(=O)NC3CCCC3)cc21
611 s | O=C(Cc1ccc(NC(=O)NC2CC2)cc1)NCC(F)(F)F
630 s | O=C(CCc1conc1-c1ccccc1)N1CCN(C2CCCCC2)CC1
742 s | O=C(Nc1ccc(F)c(F)c1)C1CCc2nc(N3CCOCC3)ncc2C1 (stereo not given)
703 s | CC(NC(=O)c1cc(-c2ccccc2)cn1C)c1ccccn1 (stereo not given)
899 s | O=C(Cc1ccccc1Cl)NC(c1ccccc1)c1nnc(N2CCCCC2)o1 (stereo not given)

SMILES | RP-LC retention time
O=C(CN1CCN(C(=O)COc2ccc(Cl)cc2Cl)CC1)c1cccs1 | 630 s
